Data as given in US20040127519A1 (Pharmacia Corporation, priority 2002, published 2004).

molecular target: Recombinant MAPKAPK2 (Homo sapiens, UniProt P49137); experiment: Determination of MK-2 IC50 (HSP-peptide phosphorylation, anion exchange resin capture assay); type: biochemical; details: MK-2 Avg. IC50, Table 2, tricyclic aminocyanopyridine MK-2 inhibitors
Method: The phosphorylation of HSP-peptide ([…]) by MAPKAPK2 was measured using an anion exchange resin capture assay method. […] The reaction was terminated and [γ^33P]ATP was removed from solution by the addition of 150 μl of AG 1×8 ion exchange resin in 900 mM sodium formate pH 3.0. A 50 μl aliquot of head volume was removed from the quenched reaction mixture and added to a 96-well plate, 150 μl of Microscint-40 (Packard) was added and the amount of phosphorylated-peptide was determined. Allow the Microscint to sit in the plates for 60 minutes prior to counting.
Compounds are evaluated as potential inhibitors of the MK2 kinase by measuring their effects on MK2 phosphorylation of the peptide substrate. Compounds may be screened initially at two concentrations prior to determination of IC50 values. Screening results are expressed as percent inhibition at the concentrations of compound tested. For IC50 value determinations, compounds are tested at six concentrations in ten-fold serial dilutions with each concentration tested in triplicate. Results are expressed as IC50 values in micromolar. The assay is performed at a final concentration of 2% DMSO.

Sequence of Recombinant MAPKAPK2 (P49137 whole entry, species assumed): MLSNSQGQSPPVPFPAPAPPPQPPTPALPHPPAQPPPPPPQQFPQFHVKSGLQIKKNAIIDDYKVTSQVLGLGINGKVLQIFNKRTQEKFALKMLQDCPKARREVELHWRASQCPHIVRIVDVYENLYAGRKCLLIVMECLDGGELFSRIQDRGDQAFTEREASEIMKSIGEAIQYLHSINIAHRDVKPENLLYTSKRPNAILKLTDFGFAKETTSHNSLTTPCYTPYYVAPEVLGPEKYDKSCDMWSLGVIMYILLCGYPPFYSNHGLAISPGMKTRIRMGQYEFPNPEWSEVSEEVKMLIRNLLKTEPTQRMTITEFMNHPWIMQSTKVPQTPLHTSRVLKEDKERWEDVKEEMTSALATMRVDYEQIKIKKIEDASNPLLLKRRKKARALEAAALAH

| Compound | IC50 [µM] |
| --- | --- |
| COc1cc2c(cc1OC)Oc1nc(N)c(C#N)c(NCCN(C)C)c1C2 [Example 63] | 79.1 |
| N#Cc1c(N)nc2c(c1N)Cc1cc([N+](=O)[O-])ccc1S2(=O)=O [Example 64] | 80.8 |
| N#Cc1c(N)nc2c(c1N)Cc1cc(-c3ccccc3)ccc1O2 [Example 65] | 83.8 |
| Cc1cc(Cl)cc2c1Oc1nc(N)c(C#N)c(N)c1C2 [Example 66] | 136 |
| CCNc1nc2c(c(NCC)c1C#N)Cc1ccc(OCC)cc1O2 [Example 68] | 148 |
| COc1ccc2c(c1)Oc1nc(N)c(C#N)c(N)c1C2c1ccccc1F (stereo not shown) [Example 69] | 151 |
| N#Cc1c(N)nc2c(c1N)Cc1cccc(OCCO)c1O2 [Example 70] | 154 |
| N#Cc1c(N)nc2c(c1N)Cc1cccc(OCCN)c1O2 [Example 71] | 161 |

same assay, conditions: MK-2 Avg. IC50, Table I, aminocyanopyridine MK-2 inhibitors

| Compound | IC50 [µM] |
| --- | --- |
| COc1ccc(Nc2c(C#N)c(N)nc3c2CC(C(F)(F)F)O3)cc1 (stereo not shown) [Example 63] | 36.4 |
| CC(C)(C)NS(=O)(=O)c1ccc(-c2cc(-c3ccco3)c(C#N)c(N)n2)cc1 [Example 64] | 36.4 |
| CCC1Cc2c(nc(N)c(C#N)c2N)O1 (stereo not shown) [Example 65] | 37.9 |
| N#Cc1c(-c2ccco2)cc(-c2ccncc2)nc1N [Example 66] | 39.9 |
| CSc1cc(N)c(C#N)c(N)n1 [Example 67] | 41.6 |
| N#Cc1c(N)nc2c(c1-c1cccc(C(=O)O)c1)CCc1[nH]ncc1-2 [Example 68] | 41.7 |
| N#Cc1c(-c2cnc[nH]2)cc(-c2ccc(Cl)cc2)nc1N [Example 69] | 42.9 |
| N#Cc1c(N)nc2c(c1-c1cccc3c1OCO3)CCc1[nH]ncc1-2 [Example 70] | 43.2 |
| CC1Cc2c(nc(N)c(C#N)c2N)O1 (stereo not shown) [Example 71] | 44.1 |
| CS(=O)(=O)c1ccc(-c2cc(-c3cnc[nH]3)c(C#N)c(N)n2)cc1 [Example 72] | 45.3 |
| N#Cc1c(N)nc2ccccc2c1N [Example 73] | 45.5 |
| N#Cc1c(N)nc2c(c1-c1ccco1)CCc1cc(N)ccc1-2 [Example 74] | 46.8 |
| N#Cc1c(-c2ccco2)cc(-c2ccco2)nc1N [Example 75] | 47.6 |
| N#Cc1c(-c2c[nH]c(C(=O)O)c2)cc(-c2ccco2)nc1N [Example 76] | 48.7 |
| CCCCC1Cc2c(nc(N)c(C#N)c2N)O1 (stereo not shown) [Example 77] | 49.1 |
| CCOC(=O)c1ccc(-c2cc(-c3cnc[nH]3)c(C#N)c(N)n2)cc1 [Example 78] | 49.1 |

| Compound | IC50 [µM] |
| --- | --- |
| COc1cc(N)c(C#N)c(N)n1 [Example 79] | 50.9 |
| N#Cc1ccc(-c2c(C#N)c(N)nc3c2CCc2[nH]ncc2-3)cc1 [Example 81] | 52.1 |
| Cn1cccc1-c1cc(-c2ccco2)c(C#N)c(N)n1 [Example 83] | 54.4 |
| N#Cc1c(-c2ccc(Oc3ccccc3)cc2)cc(-c2ccco2)nc1N [Example 85] | 59.3 |
| N#Cc1c(N)nc2c(c1-c1cccnc1)CCc1n[nH]cc1-2 [Example 86] | 62.5 |
| N#Cc1c(N)nc(SCC(=O)c2ccc(Cl)cc2)c(C#N)c1-c1ccco1 [Example 87] | 63.3 |
| CC(C)(C)NS(=O)(=O)c1ccc(-c2cc(-c3ccccc3)c(C#N)c(N)n2)cc1 [Example 90] | 68 |
| COc1ccnc(N)c1C#N [Example 91] | 69.6 |
| N#Cc1c(-c2ccc(C(=O)O)cc2)cc(-c2ccco2)nc1N [Example 92] | 59.8 |
| COc1ccc(OCC2Cc3c(nc(N)c(C#N)c3N)O2)cc1 (stereo not shown) [Example 93] | 69.8 |
| COc1ccc(-c2cc(-c3ccccc3F)c(C#N)c(N)n2)cc1 [Example 94] | 70.4 |
| CC(C)(C)NS(=O)(=O)c1ccc(-c2cc(-c3ccccc3F)c(C#N)c(N)n2)cc1 [Example 95] | 71.5 |
| N#Cc1c(N)nc2c(c1N)Cc1cccc(OCC(=O)O)c1O2 [Example 96] | 72.2 |
| N#Cc1ccc(-c2ccco2)nc1N [Example 98] | 77.5 |
| N#Cc1c(N)nc2c(c1-c1ccco1)CCc1c(O)cccc1-2 [Example 101] | 82.6 |
| N#Cc1c(-c2ccco2)cc(-c2c[nH]c3ccccc23)nc1N [Example 102] | 87.1 |
